Source: ChEMBL document CHEMBL1136837, “Unified QSAR approach to antimicrobials. 4. Multi-target QSAR modeling and comparative multi-distance study of the giant components of antiviral drug-drug complex networks” (Bioorg Med Chem, 2009)
Non-standard residues stand in square brackets, D forms with d. Residues, ends and D or L forms follow the SMILES beside them. *: point of attachment. Dip = N[C@H](C(=O)O)C(c1ccccc1)c1ccccc1; Cha = N[C@@H](CC1CCCCC1)C(=O)O; NHBn = c1ccc(CN*)cc1

Key:
[1] = test system: unidentified influenza virus; experiment: Antiviral activity against influenza virus; assay type: functional, organism-based
[2] = test system: Human immunodeficiency virus 1; experiment: Antiviral activity against HIV1; assay type: functional, organism-based
Human betaherpesvirus 5 = experiment: Antiviral activity against Human cytomegalovirus; assay type: functional, organism-based
Human alphaherpesvirus 1 = experiment: Antiviral activity against Herpes simplex virus 1; assay type: functional, organism-based; conditions: Human alphaherpesvirus 1
Human alphaherpesvirus 2 = experiment: Antiviral activity against Herpes simplex virus 2; assay type: functional, organism-based; conditions: Human alphaherpesvirus 2
Human alphaherpesvirus 3 = experiment: Antiviral activity against Varicella zoster virus; assay type: functional, organism-based
Vaccinia virus = experiment: Antiviral activity against Vaccinia virus; assay type: functional, organism-based, Orthopoxvirus vaccinia; conditions: Orthopoxvirus vaccinia
Hepatitis C virus = experiment: Antiviral activity against Hepatitis C virus; assay type: functional, organism-based, Hepacivirus hominis; conditions: Hepatitis C virus

O=c1c2nccnc2ncn1O
IC50 [1]: 500 µM

O=C1c2ccccc2C(=O)N1O
IC50 [1]: 500 µM

COc1c(C#N)c2cc(Cl)c(Cl)cc2n1[C@H]1C[C@H](O)[C@@H](CO)O1
IC50 [2]: 90 µM | IC50 (Human betaherpesvirus 5; Human betaherpesvirus 5): 68000 nM

C[C@@H]1C(=O)N(C(=O)C2CC2)[C@H]2CCN(C(=O)[C@@H]3CCCN3S(=O)(=O)c3ccc4ccccc4c3)[C@H]12
IC50 (Human betaherpesvirus 5; Human betaherpesvirus 5): 190 nM

CC(=O)c1c(O)n(O)c2cc(NC(=O)Nc3cccc(C(=O)O)c3)ccc12
IC50 [1]: 14 µM

Nc1nc(NC2CC2)cc(=O)n1CCOCP(=O)(O)O
IC50 (Human alphaherpesvirus 1): 0.0526 nM | IC50 (Human alphaherpesvirus 2): 0.0526 nM | IC50 [2]: 0.000329 µM | IC50 (Human alphaherpesvirus 3): 0.164 nM

CC(=O)c1c(O)n(O)c2cc(NC(=O)c3ccc4ccccc4c3)ccc12
IC50 [1]: 9 µM

C[C@@H]1C(=O)N(C(=O)C2CC2)[C@H]2CCN(C(=O)[C@@H]3CCCN3C(=O)c3cccc4ccccc34)[C@H]12
IC50 (Human betaherpesvirus 5; Human betaherpesvirus 5): 890 nM

O=C(Nc1ccc2c(c1)N(O)C(=O)/C2=C(\O)c1ccccc1)c1ccc(NC(=O)c2cccs2)cc1
IC50 [1]: 20 µM

O=C(Nc1ccc2c(C(=O)c3ccccc3)c(O)n(O)c2c1)NC1CCCCC1
IC50 [1]: 50 µM

N#Cc1c(Cl)n([C@@H]2O[C@H](CN=[N+]=[N-])[C@@H](O)[C@H]2O)c2cc(Cl)c(Cl)cc12
IC50 [2]: 15 µM | IC50 (Human betaherpesvirus 5; Human betaherpesvirus 5): 3000 nM

Cc1c(N)nc(N)nc1OCCOCP(=O)(O)O
IC50 (Human alphaherpesvirus 1): 1.2 nM | IC50 (Human alphaherpesvirus 2): 1.2 nM | IC50 (Human betaherpesvirus 5; Human betaherpesvirus 5): 0.72 nM | IC50 (Vaccinia virus): 0.86 nM | IC50 (Human alphaherpesvirus 3): 0.018 nM

CC(C)CC1=N/C(=C\c2ccc(F)cc2)C(=O)NC1=O
IC50 [1]: 365 µM

CC(C)Oc1ccc(NC(=O)N2CCC[C@H]2C(=O)N2CC[C@H]3[C@H]2[C@H](C)C(=O)N3C(=O)C2CC2)cc1
IC50 (Human betaherpesvirus 5; Human betaherpesvirus 5): 180 nM

Nc1nc(N)c(Br)c(OCCOCP(=O)(O)O)n1
IC50 (Human alphaherpesvirus 2): 0.7 nM | IC50 (Human betaherpesvirus 5; Human betaherpesvirus 5): 0.15 nM | IC50 (Vaccinia virus): 0.7 nM | IC50 (Human alphaherpesvirus 3): 0.15 nM

CCC(=O)c1c(O)n(O)c2cc(NC(=O)c3ccc(Cl)cc3Cl)ccc12
IC50 [1]: 45 µM

Cc1nn([C@H]2C[C@H](O)[C@@H](CO)S2)c(=O)nc1O
IC50 (Human alphaherpesvirus 1): 18000 nM | IC50 (Human alphaherpesvirus 2): 3300 nM | IC50 (Human betaherpesvirus 5; Human betaherpesvirus 5): 200000 nM | IC50 (Vaccinia virus): 2200 nM | IC50 (Human alphaherpesvirus 3): 5000 nM

O=C(Nc1ccccc1)Nc1ccc2c(C(=O)c3ccccc3)c(O)n(O)c2c1
IC50 [1]: 29 µM

CCC(=O)c1c(O)n(O)c2cc(NC(=O)Nc3ccc(Cl)cc3)ccc12
IC50 [1]: 38 µM

O=C1Cc2ccccc2CN1O
IC50 [1]: 100 µM

CC(C)OP(=O)(COCCOc1cc(N)ncn1)OC(C)C
IC50 (Human alphaherpesvirus 1): 1.2 nM | IC50 (Human alphaherpesvirus 2): 1.2 nM | IC50 [2]: 6.01 µM | IC50 (Human alphaherpesvirus 3): 0.15 nM

CC(C)Oc1cccc(S(=O)(=O)N2CCC[C@H]2C(=O)N2CC[C@H]3[C@H]2[C@H](C)C(=O)N3C(=O)C2CC2)c1
IC50 (Human betaherpesvirus 5; Human betaherpesvirus 5): 65000 nM

Cc1c(C(=O)N2CCC[C@H]2C(=O)N2CC[C@H]3[C@H]2[C@H](C)C(=O)N3C(=O)C2CC2)sc2ccc(Cl)cc12
IC50 (Human betaherpesvirus 5; Human betaherpesvirus 5): 190 nM

O=C(O)/C(O)=C/C(=O)c1ccc(C2CCCCC2)cc1
IC50 [1]: 5 µM

O=c1[nH]c(=O)n([C@H]2C[C@H](O)[C@]3(CO)C[C@H]23)cc1I
IC50 (Human alphaherpesvirus 1): 275000 nM | IC50 (Human alphaherpesvirus 2): 9060 nM

CC(=O)c1c(Br)n([C@H]2C[C@H](O)[C@@H](CO)O2)c2cc(Cl)c(Cl)cc12
IC50 (Human betaherpesvirus 5; Human betaherpesvirus 5): 340 nM

Nc1cc(OC[C@H](CO)OCP(=O)(O)O)nc(N)n1
IC50 (Human alphaherpesvirus 1): 0.0048 nM | IC50 (Human alphaherpesvirus 2): 0.017 nM | IC50 (Vaccinia virus): 0.0065 nM

O=C1Cc2ccccc2CC(=O)N1O
IC50 [1]: 1000 µM

CN(C)c1cc(O)nc(N)n1
IC50 (Human alphaherpesvirus 1): 2.6 nM | IC50 (Human alphaherpesvirus 2): 2.6 nM | IC50 (Human alphaherpesvirus 3): 0.325 nM

O=C1CCc2ccccc2C(=O)N1O
IC50 [1]: 1000 µM

Cc1cn([C@H]2C[C@H](O)[C@]3(CO)C[C@H]23)c(=O)[nH]c1=O [(NORTH)-METHANOCARBATHYMIDINE]
IC50 (Human alphaherpesvirus 1): 120 nM

O=C(/C=C/c1ccccc1Cl)Nc1ccc(C(=O)Nc2ccc3c(c2)N(O)C(=O)/C3=C(\O)c2ccccc2)cc1
IC50 [1]: 9.5 µM

CCc1nn([C@H]2C[C@H](O)[C@@H](CO)S2)c(=O)nc1O
IC50 (Human alphaherpesvirus 1): 120000 nM | IC50 (Human alphaherpesvirus 2): 200000 nM | IC50 (Human betaherpesvirus 5; Human betaherpesvirus 5): 40000 nM | IC50 (Vaccinia virus): 200000 nM | IC50 (Human alphaherpesvirus 3): 40000 nM

Cc1cn(/C=C2/CC2(CO)CO)c(=O)[nH]c1=O
IC50 (Human alphaherpesvirus 1): 420000 nM | IC50 (Human alphaherpesvirus 2): 420000 nM | IC50 (Human betaherpesvirus 5; Human betaherpesvirus 5): 420000 nM | IC50 (Human alphaherpesvirus 3): 420000 nM

Nc1nc(N)c(Cl)c(OCCOCP(=O)(O)O)n1
IC50 (Human alphaherpesvirus 2): 1.2 nM | IC50 (Vaccinia virus): 1.2 nM

CCCOc1ccc(NC(=O)N2CCC[C@H]2C(=O)N2CC[C@H]3[C@H]2[C@H](C)C(=O)N3C(=O)C2CC2)cc1
IC50 (Human betaherpesvirus 5; Human betaherpesvirus 5): 210 nM

CC(C)OC(=O)OCOP(=O)(CO[C@H](C)Cn1cnc2c(N)ncnc21)OCOC(=O)OC(C)C [TENOFOVIR DISOPROXIL]
IC50 (Vaccinia virus): 157000 nM

O=c1[nH]c(=O)n([C@H]2C[C@H](O)[C@]3(CO)C[C@H]23)cc1/C=C/Br
IC50 (Human alphaherpesvirus 1): 6410 nM | IC50 (Human alphaherpesvirus 2): 291000 nM

O[C@@H]1[C@H](O)[C@@H](n2c(Cl)nc3cc(Cl)c(Cl)cc32)O[C@H]1C(F)(F)F
IC50 (Human betaherpesvirus 5; Human betaherpesvirus 5): 450 nM

CCCCCCCCCCCCCCCCCCOCCOP1(=O)CO[C@@H](Cn2ccc(N)nc2=O)CO1 (some centres not stated)
IC50 (Vaccinia virus): 580 nM

C[C@@H]1C(=O)N(C(=O)C2CC2)[C@H]2CCN(C(=O)[C@@H]3CCCN3C(=O)Nc3ccccc3)[C@H]12
IC50 (Human betaherpesvirus 5; Human betaherpesvirus 5): 1400 nM

CCCCCCCCCCCCCCCCCCOCCCOP(=O)(O)CO[C@H](CO)Cn1ccc(N)nc1=O
IC50 (Human betaherpesvirus 5; Human betaherpesvirus 5): 0.03 nM

O=c1[nH]c(=O)n([C@H]2C[C@H](O)[C@]3(CO)C[C@H]23)cc1Br
IC50 (Human alphaherpesvirus 1): 1230 nM | IC50 (Human alphaherpesvirus 2): 2200 nM

C[C@@H]1C(=O)N(C(=O)C2CC2)[C@H]2CCN(C(=O)[C@@H]3CCCN3C(=O)Nc3ccc(Cl)cc3)[C@H]12
IC50 (Human betaherpesvirus 5; Human betaherpesvirus 5): 260 nM

C[C@@H]1C(=O)N(C(=O)C2CC2)[C@H]2CCN(C(=O)[C@@H]3CCCN3C(=O)c3ccc(Cl)cc3)[C@H]12
IC50 (Human betaherpesvirus 5; Human betaherpesvirus 5): 1400 nM

CC(=O)OC[C@H]1S[C@@H](n2nc(C)c(=S)[nH]c2=O)C[C@@H]1OC(C)=O
IC50 (Human alphaherpesvirus 1): 8000 nM | IC50 (Human alphaherpesvirus 2): 8000 nM

Nc1cc(OCCOCP(=O)(O)O)nc(N)n1
IC50 (Human alphaherpesvirus 1): 0.0246 nM | IC50 (Human alphaherpesvirus 2): 0.0909 nM

CCCc1nn([C@H]2C[C@H](O)[C@@H](CO)S2)c(=O)[nH]c1=O
IC50 (Human betaherpesvirus 5; Human betaherpesvirus 5): 40000 nM

C[C@@H]1C(=O)N(C(=O)C2CC2)[C@H]2CCN(C(=O)[C@@H]3CCCN3S(=O)(=O)c3ccc(Cl)cc3)[C@H]12 (stereo in doubt; form 2)
IC50 (Human betaherpesvirus 5): 840 nM

C[C@@H]1C(=O)N(C(=O)C2CC2)[C@H]2CCN(C(=O)[C@@H]3CCCN3C(=O)Nc3cccc(Cl)c3)[C@H]12
IC50 (Human betaherpesvirus 5; Human betaherpesvirus 5): 650 nM

CC(=O)N[C@@H](CC(=O)O)C(=O)N[C@@H](CCC(=O)O)C(=O)N[C@H](C(=O)N[C@@H](CCC(=O)O)C(=O)N[C@@H](CC1CCCCC1)C(=O)N[C@@H](CS)C(=O)NCc1ccccc1)C(c1ccccc1)c1ccccc1 (Ac-DE[Dip]E[Cha]C-NHBn)
IC50 (Hepatitis C virus): 0.25 µM

CCc1ccc(Cl)c2[nH]c3c(c12)CCOC3(CC)CC(=O)O (configuration not stated)
IC50 (Hepatitis C virus): 30 µM

CC(C)(C)c1ccc(C(=O)CC(=O)C(=O)O)cc1
IC50 (Hepatitis C virus): 50 µM

Nc1ccn(C[C@@H](CO)OCP(=O)(O)O)c(=O)n1 (stereo in doubt; form 2) [CIDOFOVIR]
IC50 (Vaccinia virus): 32000 nM

CCOC(=O)Cc1c(N)nc(N)n(CCOCP(=O)(O)O)c1=O
IC50 (Human alphaherpesvirus 1): 1.2 nM | IC50 (Human alphaherpesvirus 2): 1.2 nM | IC50 [2]: 0.0003 µM | IC50 (Human betaherpesvirus 5; Human betaherpesvirus 5): 0.15 nM | IC50 (Vaccinia virus): 1.2 nM | IC50 (Human alphaherpesvirus 3): 0.15 nM

CCC[C@]1(CC(=O)O)OCCc2c1[nH]c1c(C)cc(F)c(C#N)c21
IC50 (Hepatitis C virus): 0.08 µM

Nc1ncnc2c1ncn2CCOCP(=O)(O)O [ADEFOVIR]
IC50 (Human alphaherpesvirus 1): 0.024 nM

OC[C@H]1O[C@@H](n2c(Cl)nc3cc(Cl)c(Cl)cc32)[C@H](O)[C@@H]1O
IC50 (Human betaherpesvirus 5; Human betaherpesvirus 5): 3200 nM

O=c1[nH]c(=O)n([C@H]2C[C@H](O)[C@@H](CO)O2)cc1/C=C/Br [BRIVUDINE]
IC50 (Human alphaherpesvirus 1): 48000 nM | IC50 (Human alphaherpesvirus 2): 76 nM | IC50 (Human betaherpesvirus 5; Human betaherpesvirus 5): 150000 nM | IC50 (Vaccinia virus): 400000 nM | IC50 (Human alphaherpesvirus 3): 29000 nM

C[C@@H]1C(=O)N(C(=O)C2CC2)[C@H]2CCN(C(=O)[C@@H]3CCCN3C(=O)Nc3cccc4ccccc34)[C@H]12
IC50 (Human betaherpesvirus 5; Human betaherpesvirus 5): 650 nM

Nc1nc2c(ncn2COCCO)c(=O)[nH]1 [ACYCLOVIR]
IC50 (Vaccinia virus): 384 nM

CC(NP1(=O)CO[C@@H](Cn2ccc(N)nc2=O)CO1)C(=O)OCCc1ccccc1 (some centres not stated)
IC50 (Vaccinia virus): 7100 nM

COc1c(C=O)c2cc(Cl)c(Cl)cc2n1[C@H]1C[C@H](O)[C@@H](CO)O1
IC50 [2]: 100 µM | IC50 (Human betaherpesvirus 5; Human betaherpesvirus 5): 100000 nM

COc1ccc2c(O[C@@H]3C[C@H]4C(=O)N[C@]5(C(=O)O)C[C@H]5/C=C\CCCCC[C@H](NC(=O)OC5CCCC5)C(=O)N4C3)cc(-c3csc(N)n3)nc2c1
IC50 (Hepatitis C virus): 0.0035 µM

CCCC1(CC(=O)O)OCCc2c1[nH]c1c(F)ccc(C#N)c21 (single isomer, unassigned)
IC50 (Hepatitis C virus): 5.2 µM

COc1ccc2c(O[C@@H]3C[C@H]4C(=O)N[C@]5(C(=O)O)C[C@H]5/C=C\CCCCC[C@H](NC(=O)OC5CCCC5)C(=O)N4C3)cc(-n3cccn3)nc2c1
IC50 (Hepatitis C virus): 0.0022 µM
